This note sets out measurements from US10294234B2, “HIV inhibitor compounds” (priority 2017, dated 2019).

Structures are written as SMILES. Like-named read-outs stand apart in the source and are kept apart here.

The experiment has as its system HIV-1 (IIIB) in MT-4 cells. Put plainly: MT-4 HIV assay. It counts as cell-based. The note with it: Human immunodeficiency virus 1, MT4, 120 h. In a few lines: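 MT-4 cells infected with HIV-1 IIIB (1:250 stock dilution) were incubated with 1:3 serially diluted compounds in RPMI with 10% FBS for 5 days at 37 °C. Cell Titer Glo luminescence was the readout. Plates included mock-infected wells, no-drug wells and 5 uM AZT controls.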

Setting [1] is: HIV-1 (IIIB), MT-4 cells, 5 days, Cell Titer Glo, read-out: EC50.

On to `CCC(=O)N[C@H](C(=O)N[C@@H](Cc1ccc(-c2cnn(C(F)F)c2)cc1)[C@@H](O)CN(Cc1c(F)cc(-c2cnn(C(F)F)c2)cc1F)NC(=O)[C@@H](NC(=O)CC)C(C)(C)C(F)(F)F)C(C)(C)C(F)(F)F` [Example 215, (S)—N-((2S,3S)-4-(1-(4-(1-(difluoromethyl)-1H-pyrazol-4-yl)-2,6-difluorobenzyl)-2-((S)-4,4,4-trifluoro-3,3-dimethyl-2-propionamidobutanoyl)hydrazinyl)-1-(4-(1-(difluoromethyl)-1H-pyrazol-4-yl)phenyl)-3-hydroxybutan-2-yl)-4,4,4-trifluoro-3,3-dimethyl-2-propionamidobutanamide], for which the EC50 (commonly the concentration giving half of the maximal effect) under setting [1] turned out to be 18.2 nM.

For the compound `COC(=O)N[C@H](C(=O)N[C@@H](Cc1ccc(C#Cc2ccc(N3CC4CCC(C3)N4C(=O)N(C)C)nc2)cc1)[C@@H](O)CN(Cc1c(F)cc(-c2cnn(C(F)F)c2)cc1F)NC(=O)[C@@H](NC(=O)OC)C(C)(C)C(F)(F)F)C(C)(C)C(F)(F)F` [Example 17, Methyl ((5S,8S,9S,14S)-11-(4-(1-(difluoromethyl)-1H-pyrazol-4-yl)-2,6-difluorobenzyl)-8-(4-((6-(8-(dimethylcarbamoyl)-3,8-diazabicyclo[3.2.1]octan-3-yl)pyridin-3-yl)ethynyl)benzyl)-16,16,16-trifluoro-9-hydroxy-15,15-dimethyl-3,6,13-trioxo-5-(1,1,1-trifluoro-2-methylpropan-2-yl)-2-oxa-4,7,11,12-tetraazahexadecan-14-yl)carbamate], the EC50 turned out to be 7.24 nM.

For `COC(=O)N[C@H](C(=O)N[C@@H](Cc1ccc(C#Cc2ccc(N3C[C@H]4C[C@@H]3CN4C3COC3)nc2)cc1)[C@@H](O)CN(Cc1ccc(-c2ccn(C(F)F)n2)cc1)NC(=O)[C@@H](NC(=O)OC)C(C)(C)C(F)(F)F)C(C)(C)C(F)(F)F` [Example 29, Methyl ((5S,8S,9S,14S)-11-(4-(1-(difluoromethyl)-1H-pyrazol-3-yl)benzyl)-16,16,16-trifluoro-9-hydroxy-15,15-dimethyl-8-(4-((6-((1R,4R)-5-(oxetan-3-yl)-2,5-diazabicyclo [2.2.1]heptan-2-yl)pyridin-3-yl)ethynyl)benzyl)-3,6,13-trioxo-5-(1,1,1-trifluoro-2-methylpropan-2-yl)-2-oxa-4,7,11,12-tetraazahexadecan-14-yl)carbamate], the EC50 under setting [1] worked out at 4.02 nM.

In the case of `COC(=O)N[C@H](C(=O)N[C@@H](Cc1ccc(C#Cc2ccc(N3CC4CCC(C3)N4C3COC3)nc2)cc1)[C@@H](O)CN(Cc1ccc(-c2ccc(F)cn2)cc1F)NC(=O)[C@@H](NC(=O)OC)C(C)(C)C(F)(F)F)C(C)(C)C(F)(F)F` [Example 235, methyl ((5S,8S,9S,14S)-16,16,16-trifluoro-11-(2-fluoro-4-(5-fluoropyridin-2-yl)benzyl)-9-hydroxy-15,15-dimethyl-8-(4-((6-(8-(oxetan-3-yl)-3,8-diazabicyclo[3.2.1]octan-3-yl)pyridin-3-yl)ethynyl)benzyl)-3,6,13-trioxo-5-(1,1,1-trifluoro-2-methylpropan-2-yl)-2-oxa-4,7,11,12-tetraazahexadecan-14-yl)carbamate], the EC50 under setting [1] amounted to 16.7 nM.

For the compound `COC(=O)N[C@H](C(=O)N[C@@H](Cc1ccc(C#Cc2ccc(N3CC4CCC(C3)N4C)nc2)cc1)[C@@H](O)CN(Cc1c(F)cc(-c2ccccn2)cc1F)NC(=O)[C@@H](NC(=O)OC)C(C)(C)C(F)(F)F)C(C)(C)C(F)(F)F` [Example 242, methyl ((5S,8S,9S,14S)-11-(2,6-difluoro-4-(pyridin-2-yl)benzyl)-16,16,16-trifluoro-9-hydroxy-15,15-dimethyl-8-(4-((6-(8-methyl-3,8-diazabicyclo[3.2.1]octan-3-yl)pyridin-3-yl)ethynyl)benzyl)-3,6,13-trioxo-5-(1,1,1-trifluoro-2-methylpropan-2-yl)-2-oxa-4,7,11,12-tetraazahexadecan-14-yl)carbamate], the EC50 under setting [1] worked out at 3.45 nM.

As to `COC(=O)N[C@H](C(=O)N[C@@H](Cc1ccc(C#Cc2ccc(N3C[C@H]4C[C@@H]3CN4C3COC3)nc2)cc1)[C@@H](O)CN(Cc1ccc(-c2ccn(C3CC3)n2)cc1)NC(=O)[C@@H](NC(=O)OC)C(C)(C)C(F)(F)F)C(C)(C)C(F)(F)F` [Example 28, Methyl ((5S,8S,9S,14S)-11-(4-(1-cyclopropyl-1H-pyrazol-3-yl)benzyl)-16,16,16-trifluoro-9-hydroxy-15,15-dimethyl-8-(4-((6-((1R,4R)-5-(oxetan-3-yl)-2,5-diazabicyclo[2.2.1]heptan-2-yl)pyridin-3-yl)ethynyl)benzyl)-3,6,13-trioxo-5-(1,1,1-trifluoro-2-methylpropan-2-yl)-2-oxa-4,7,11,12-tetraazahexadecan-14-yl)carbamate], under setting [1], the EC50 came to 4.56 nM.

`COC(=O)N[C@H](C(=O)NN(Cc1c(F)cc(-c2ccn(CC(F)F)n2)cc1F)C[C@H](O)[C@H](Cc1ccc(C#Cc2ccc(N3C[C@H]4C[C@@H]3CN4C3COC3)nc2)cc1)NC(=O)[C@@H](NC(=O)OC)C(C)(C)C(F)(F)F)C(C)(C)C` [Example 8, methyl ((5S,8S,9S,14S)-11-(4-(1-(2,2-difluoroethyl)-1H-pyrazol-3-yl)-2,6-difluorobenzyl)-9-hydroxy-15,15-dimethyl-8-(4-((6-((1R,4R)-5-(oxetan-3-yl)-2,5-diazabicyclo[2.2.1]heptan-2-yl)pyridin-3-yl)ethynyl)benzyl)-3,6,13-trioxo-5-(1,1,1-trifluoro-2-methylpropan-2-yl)-2-oxa-4,7,11,12-tetraazahexadecan-14-yl)carbamate]: the 50% effective concentration (EC50) under setting [1] came to 2.46 nM.

Consider `COC(=O)N[C@H](C(=O)N[C@@H](Cc1ccc(C#Cc2ccc(N3CC4CCC(C3)N4C(=O)[C@@H]3CCCO3)nc2)cc1)[C@@H](O)CN(Cc1c(F)cc(-c2ccccn2)cc1F)NC(=O)[C@@H](NC(=O)OC)C(C)(C)C)C(C)(C)C` [Example 225, Methyl ((5S,8S,9S,14S)-5-(tert-butyl)-11-(2,6-difluoro-4-(pyridin-2-yl)benzyl)-9-hydroxy-15,15-dimethyl-3,6,13-trioxo-8-(4-((6-(8-((S)-tetrahydrofuran-2-carbonyl)-3,8-diazabicyclo[3.2.1]octan-3-yl)pyridin-3-yl)ethynyl)benzyl)-2-oxa-4,7,11,12-tetraazahexadecan-14-yl)carbamate], for which the EC50 under setting [1] was 4.26 nM.

With `COC(=O)N[C@H](C(=O)N[C@@H](Cc1ccc(-c2ccc(N3C[C@H]4C[C@@H]3CN4C3COC3)nc2)cc1)[C@@H](O)CN(Cc1c(F)cc(-c2ccn(C3CC3)n2)cc1F)NC(=O)[C@@H](NC(=O)OC)C(C)(C)C(F)(F)F)C(C)(C)C(F)(F)F` [Example 194, Methyl ((5S,8S,9S,14S)-11-(4-(1-cyclopropyl-1H-pyrazol-3-yl)-2,6-difluorobenzyl)-16,16,16-trifluoro-9-hydroxy-15,15-dimethyl-8-(4-(6-((1R,4R)-5-(oxetan-3-yl)-2,5-diazabicyclo[2.2.1]heptan-2-yl)pyridin-3-yl)benzyl)-3,6,13-trioxo-5-(1,1,1-trifluoro-2-methylpropan-2-yl)-2-oxa-4,7,11,12-tetraazahexadecan-14-yl)carbamate], the EC50 was determined as 7.2 nM.

Consider `CC(C)([C@H](NC(=O)OC1COC1)C(=O)N[C@@H](Cc1ccc(C#Cc2ccc(N3CC4CCC(C3)N4C3COC3)nc2)cc1)[C@@H](O)CN(Cc1c(F)cc(-c2ccn(C(F)F)n2)cc1F)NC(=O)[C@@H](NC(=O)OC1COC1)C(C)(C)C(F)(F)F)C(F)(F)F` [Example 169, oxetan-3-yl ((2S)-1-(2-(4-(1-(difluoromethyl)-1H-pyrazol-3-yl)-2,6-difluorobenzyl)-2-((2S,3S)-2-hydroxy-4-(4-((6-(8-(oxetan-3-yl)-3,8-diazabicyclo[3.2.1]octan-3-yl)pyridin-3-yl)ethynyl)phenyl)-3-((S)-4,4,4-trifluoro-33-dimethyl-2-(((oxetan-3-yloxy)carbonyl)amino)butanamido)butyl)hydrazinyl)-4,4,4-trifluoro-3,3-dimethyl-1-oxobutan-2-yl)carbamate], for which the EC50 under setting [1] is 6.76 nM.

In the case of `COC(=O)N[C@H](C(=O)N[C@@H](Cc1ccc(C#Cc2ccc(N3C[C@H]4CN(C)C[C@H]4C3)nc2)cc1)[C@@H](O)CN(Cc1c(F)cc(-c2ccn(C(F)F)n2)cc1F)NC(=O)[C@@H](NC(=O)OC)C(C)(C)C(F)(F)F)C(C)(C)C(F)(F)F` [Example 164, Methyl ((5S,8S,9S,14S)-11-(4-(1-(difluoromethyl)-1H-pyrazol-3-yl)-2,6-difluorobenzyl)-16,16,16-trifluoro-9-hydroxy-15,15-dimethyl-8-(4-((6-((3 aR,6aS)-5-methylhexahydropyrrolo[3,4-c]pyrrol-2(1H)-yl)pyridin-3-yl)ethynyl)benzyl)-3,6,13-trioxo-5-(1,1,1-trifluoro-2-methylpropan-2-yl)-2-oxa-4,7,11,12-tetraazahexadecan-14-yl)carbamate], the half-maximal effective concentration (EC50) under setting [1] amounted to 7.89 nM.

For the compound `COC(=O)N[C@H](C(=O)N[C@@H](Cc1ccc(C#Cc2cnc(N3CC4CCC(C3)N4C3COC3)nc2)cc1)[C@@H](O)CN(Cc1c(F)cc(-c2ccn(C(F)F)n2)cc1F)NC(=O)[C@@H](NC(=O)OC)C12CC(C(F)(F)F)(C1)C2)C12CC(C(F)(F)F)(C1)C2` [Example 160, Methyl ((5S,8S,9S,14S)-11-(4-(1-(difluoromethyl)-1H-pyrazol-3-yl)-2,6-difluorobenzyl)-9-hydroxy-8-(4-((2-(8-(oxetan-3-yl)-3,8-diazabicyclo[3.2.1]octan-3-yl)pyrimidin-5-yl)ethynyl)benzyl)-3,6,13-trioxo-5,14-bis(3-(trifluoromethyl)bicyclo[1.1.1]pentan-1-yl)-2-oxa-4,7,11,12-tetraazatetradecan-14-yl)carbamate], the EC50 under setting [1] came to 5700 nM.
